Laboratory results: ChEMBL document CHEMBL1629585, “Nationwide survey of CTX-M-type extended-spectrum beta-lactamases among Klebsiella pneumoniae isolates in Slovenian hospitals” (2009)
In brackets after ≈: the same amount, converted by molar mass.

How the values were obtained:
Klebsiella pneumoniae [1] = assay: Antibacterial activity against Klebsiella pneumoniae B expressing CTX-M group 1 beta-lactamase by Etest method; format: functional
Klebsiella pneumoniae [2] = assay: Antibacterial activity against Klebsiella pneumoniae C expressing CTX-M group 1 beta-lactamase by Etest method; format: functional
Escherichia coli [3] = assay: Antibacterial activity against Escherichia coli TrC A expressing Klebsiella pneumoniae A blaCTX-M beta-lactamase by Etest method; format: functional
Klebsiella pneumoniae [4] = assay: Antibacterial activity against Klebsiella pneumoniae C expressing CTX-M group 1 beta-lactamase by Etest method in presence of clavulanic acid; format: functional
Klebsiella pneumoniae [5] = assay: Antibacterial activity against Klebsiella pneumoniae expressing CTX-M group 1 beta-lactamase by Etest method; format: functional
Escherichia coli [6] = assay: Antibacterial activity against Escherichia coli TrC A expressing Klebsiella pneumoniae A blaCTX-M beta-lactamase by Etest method in presence of clavulanic acid
Escherichia coli [7] = assay: Antibacterial activity against rifampicin resistant Escherichia coli J53-2 by Etest method in presence of clavulanic acid; format: functional
Escherichia coli [8] = assay: Antibacterial activity against Escherichia coli TrC C expressing Klebsiella pneumoniae C blaCTX-M beta-lactamase by Etest method in presence of clavulanic acid
Klebsiella pneumoniae [9] = assay: Antibacterial activity against Klebsiella pneumoniae A expressing CTX-M group 1 beta-lactamase by Etest method; format: functional
Klebsiella pneumoniae [10] = assay: Antibacterial activity against Klebsiella pneumoniae expressing CTX-M group 1 beta-lactamase by Etest method in presence of clavulanic acid; format: functional
Klebsiella pneumoniae [11] = assay: Antibacterial activity against Klebsiella pneumoniae B expressing CTX-M group 1 beta-lactamase by Etest method in presence of clavulanic acid; format: functional
Klebsiella pneumoniae [12] = assay: Antibacterial activity against Klebsiella pneumoniae A expressing CTX-M group 1 beta-lactamase by Etest method in presence of clavulanic acid; format: functional
Klebsiella pneumoniae [13] = assay: Antibacterial activity against Klebsiella pneumoniae D expressing CTX-M group 1 beta-lactamase by Etest method in presence of clavulanic acid; format: functional
Escherichia coli [14] = assay: Antibacterial activity against Escherichia coli TrC C expressing Klebsiella pneumoniae C blaCTX-M beta-lactamase by Etest method; format: functional
Escherichia coli [15] = assay: Antibacterial activity against rifampicin resistant Escherichia coli J53-2 by Etest method
Escherichia coli [16] = assay: Antibacterial activity against Escherichia coli TrC B expressing Klebsiella pneumoniae B blaCTX-M beta-lactamase by Etest method; format: functional
Klebsiella pneumoniae [17] = assay: Antibacterial activity against Klebsiella pneumoniae D expressing CTX-M group 1 beta-lactamase by Etest method; format: functional
Escherichia coli [18] = assay: Antibacterial activity against Escherichia coli TrC B expressing Klebsiella pneumoniae B blaCTX-M beta-lactamase by Etest method in presence of clavulanic acid
Escherichia coli [19] = assay: Antibacterial activity against Escherichia coli TrC A expressing Klebsiella pneumoniae A blaCTX-M beta-lactamase by Etest method in presence of Tazobactam; format: functional
Klebsiella pneumoniae [20] = assay: Antibacterial activity against Klebsiella pneumoniae B expressing CTX-M group 1 beta-lactamase by Etest method in presence of Tazobactam; format: functional
Escherichia coli [21] = assay: Antibacterial activity against rifampicin resistant Escherichia coli J53-2 by Etest method in presence of Tazobactam; format: functional
Escherichia coli [22] = assay: Antibacterial activity against Escherichia coli TrC B expressing Klebsiella pneumoniae B blaCTX-M beta-lactamase by Etest method in presence of Tazobactam; format: functional
Klebsiella pneumoniae [23] = assay: Antibacterial activity against Klebsiella pneumoniae C expressing CTX-M group 1 beta-lactamase by Etest method in presence of Tazobactam; format: functional
Klebsiella pneumoniae [24] = assay: Antibacterial activity against Klebsiella pneumoniae A expressing CTX-M group 1 beta-lactamase by Etest method in presence of Tazobactam; format: functional
Escherichia coli [25] = assay: Antibacterial activity against Escherichia coli TrC C expressing Klebsiella pneumoniae C blaCTX-M beta-lactamase by Etest method in presence of Tazobactam; format: functional

Compound | MIC (Klebsiella pneumoniae [1]) [µg/mL] | MIC50 (Klebsiella pneumoniae [1]) [µg/mL] | MIC90 (Klebsiella pneumoniae [1]) [µg/mL] | MIC (Klebsiella pneumoniae [2]) [µg/mL] | MIC50 (Klebsiella pneumoniae [2]) [µg/mL] | MIC90 (Klebsiella pneumoniae [2]) [µg/mL] | MIC (Escherichia coli [3]) [µg/mL] | MIC (Klebsiella pneumoniae [4]) [µg/mL] | MIC (Klebsiella pneumoniae [5]) [µg/mL] | MIC50 (Klebsiella pneumoniae [5]) [µg/mL] | MIC90 (Klebsiella pneumoniae [5]) [µg/mL] | MIC (Klebsiella pneumoniae [9]) [µg/mL] | MIC50 (Klebsiella pneumoniae [9]) [µg/mL] | MIC90 (Klebsiella pneumoniae [9]) [µg/mL] | MIC (Escherichia coli [14]) [µg/mL] | MIC (Escherichia coli [15]) [µg/mL] | MIC (Escherichia coli [16]) [µg/mL] | MIC (Klebsiella pneumoniae [17]) [µg/mL] | MIC50 (Klebsiella pneumoniae [17]) [µg/mL] | MIC90 (Klebsiella pneumoniae [17]) [µg/mL] | also measured
CC(C)(O/N=C(\C(=O)N[C@@H]1C(=O)N2C(C(=O)[O-])=C(C[n+]3ccccc3)CS[C@H]12)c1csc(N)n1)C(=O)O [CEFTAZIDIME] | 24 (≈ 43.9 µM) | 32 (≈ 58.5 µM) | 64 (≈ 117 µM) | 16 (≈ 29.3 µM) | 192 (≈ 351 µM) | > 256 | 32 (≈ 58.5 µM) | 0.38 | 4 (≈ 7.32 µM) | 48 (≈ 87.8 µM) | 128 (≈ 234 µM) | 16 (≈ 29.3 µM) | 32 (≈ 58.5 µM) | 96 (≈ 176 µM) | 128 (≈ 234 µM) | 0.5 (≈ 0.915 µM) | 64 (≈ 117 µM) | 24 (≈ 43.9 µM) | 48 (≈ 87.8 µM) | 128 (≈ 234 µM) | MIC50 (Klebsiella pneumoniae [4]): 0.75 µg/mL; MIC90 (Klebsiella pneumoniae [4]): 1 µg/mL; MIC (Escherichia coli [6]): 0.5 µg/mL; MIC (Escherichia coli [7]): 0.25 µg/mL; MIC (Escherichia coli [8]): 0.5 µg/mL; MIC (Klebsiella pneumoniae [10]): 0.125 µg/mL; MIC50 (Klebsiella pneumoniae [10]): 0.25 µg/mL; MIC90 (Klebsiella pneumoniae [10]): > 4 µg/mL; MIC (Klebsiella pneumoniae [11]): 0.25 µg/mL; MIC50 (Klebsiella pneumoniae [11]): 0.38 µg/mL; MIC90 (Klebsiella pneumoniae [11]): 0.5 µg/mL; MIC (Klebsiella pneumoniae [12]): 0.19 µg/mL; MIC50 (Klebsiella pneumoniae [12]): 0.25 µg/mL; MIC90 (Klebsiella pneumoniae [12]): 0.5 µg/mL; MIC (Klebsiella pneumoniae [13]): 0.19 µg/mL; MIC50 (Klebsiella pneumoniae [13]): 0.38 µg/mL; MIC90 (Klebsiella pneumoniae [13]): 0.5 µg/mL; MIC (Escherichia coli [18]): 0.5 µg/mL
C[C@@H](O)[C@H]1C(=O)N2C(C(=O)O)=C(SCCNC=N)C[C@H]12 [IMIPENEM ANHYDROUS] | 0.125 (≈ 0.418 µM) | 0.19 (≈ 0.635 µM) | 0.19 (≈ 0.635 µM) | 0.19 (≈ 0.635 µM) | 0.19 (≈ 0.635 µM) | 0.38 (≈ 1.27 µM) |  |  | 0.19 (≈ 0.635 µM) | 0.25 (≈ 0.835 µM) | 0.5 (≈ 1.67 µM) | 0.19 (≈ 0.635 µM) | 0.25 (≈ 0.835 µM) | 0.38 (≈ 1.27 µM) |  |  |  | 0.19 (≈ 0.635 µM) | 0.25 (≈ 0.835 µM) | 0.25 (≈ 0.835 µM) | 
O=C(O)c1cn(C2CC2)c2cc(N3CCNCC3)c(F)cc2c1=O [CIPROFLOXACIN] |  | > 32 | > 32 |  | > 32 | > 32 | ≤ 0.125 |  | 0.032 (≈ 0.0966 µM) | 16 (≈ 48.3 µM) | > 32 | 0.38 (≈ 1.15 µM) | 1 (≈ 3.02 µM) | 6 (≈ 18.1 µM) | ≤ 0.125 | ≤ 0.125 | ≤ 0.125 |  | > 32 | > 32 | 
CO/N=C(\C(=O)N[C@@H]1C(=O)N2C(C(=O)O)=C(COC(C)=O)CS[C@H]12)c1csc(N)n1 [CEFOTAXIME] | 96 (≈ 211 µM) | > 256 | > 256 | > 256 | > 256 | > 256 | 256 (≈ 562 µM) | 0.047 | 48 (≈ 105 µM) | > 256 | > 256 | 64 (≈ 141 µM) | > 256 | > 256 | 256 (≈ 562 µM) | 0.25 (≈ 0.549 µM) | 256 (≈ 562 µM) | > 256 | > 256 | > 256 | MIC50 (Klebsiella pneumoniae [4]): 0.125 µg/mL; MIC90 (Klebsiella pneumoniae [4]): > 1 µg/mL; MIC (Escherichia coli [6]): 0.125 µg/mL; MIC (Escherichia coli [7]): ≤ 0.06 µg/mL; MIC (Escherichia coli [8]): 0.125 µg/mL; MIC (Klebsiella pneumoniae [10]): 0.032 µg/mL; MIC50 (Klebsiella pneumoniae [10]): 0.047 µg/mL; MIC90 (Klebsiella pneumoniae [10]): > 1 µg/mL; MIC (Klebsiella pneumoniae [11]): 0.047 µg/mL; MIC50 (Klebsiella pneumoniae [11]): 0.094 µg/mL; MIC90 (Klebsiella pneumoniae [11]): 0.094 µg/mL; MIC (Klebsiella pneumoniae [12]): 0.023 µg/mL; MIC50 (Klebsiella pneumoniae [12]): 0.023 µg/mL; MIC90 (Klebsiella pneumoniae [12]): 0.19 µg/mL; MIC (Klebsiella pneumoniae [13]): 0.047 µg/mL; MIC50 (Klebsiella pneumoniae [13]): 0.047 µg/mL; MIC90 (Klebsiella pneumoniae [13]): 0.125 µg/mL; MIC (Escherichia coli [18]): 0.125 µg/mL
GENTAMICIN |  |  |  |  | 128 | > 256 | 4 |  |  | 64 | > 256 |  |  |  | 16 |  | 32 |  |  |  | 
C[C@]1(Cn2ccnn2)[C@H](C(=O)O)N2C(=O)C[C@H]2S1(=O)=O [TAZOBACTAM] |  |  |  |  |  |  |  |  |  |  |  |  |  |  |  |  |  |  |  |  | MIC (Escherichia coli [19]): 4 µg/mL; MIC (Klebsiella pneumoniae [20]): > 64 µg/mL; MIC (Escherichia coli [21]): 4 µg/mL; MIC (Escherichia coli [22]): 16 µg/mL; MIC (Klebsiella pneumoniae [23]): > 64 µg/mL; MIC (Klebsiella pneumoniae [24]): 4 µg/mL; MIC (Escherichia coli [25]): 16 µg/mL
